Patent publication US11519859B2, “Rhodol-based thallium sensors for high-throughput screening of potassium channels” (priority 2018, dated 2022)

Key:
[1] = Determination of photochemical properties of saponified dyes; assay type: physicochemical; conditions: after saponification, 150 mM KCl, 10 mM HEPES, 50 μM EDTA, pH = 7.22; for ε (molar absorptivity): at λmax
Procedure: Evaluation of the photochemical properties of the active Thallium sensing species was accomplished by saponifying 10 μL of each pro-dye stock solution by incubating with 90 μL of 0.1 M KOH for 20 min at 37° C. with the exception of 8b which was treated with 1% NH4OH for 1 h at 37° C. The saponified compounds were diluted into 150 mM KCl buffered with 10 mM HEPES, pH=7.22 with 50 μM of EDTA. All photochemical measurements were taken in this buffer. Absorbance and fluorescence emission spectra were recorded on a Molecular Devices Spectromax M5 using polystyrene cuvettes with path length=1 cm at 23° C. Molar absorptivities are reported for λmax. The emission wavelengths monitored for recording excitation spectra, the excitation wavelengths used for recording emission spectra, and the corresponding emission cutoff filters used are listed in Table 2 below, and representative excitation and emission spectra are shown in FIG. 7.
To determine the in vitro photochemical properties of the active Tl^+ sensing species, 8a-m were treated with base to remove the acetoxymethyl esters and aryl acetate and then diluted into 10 mM HEPES buffered 150 mM KCl with 50 μM EDTA at pH=7.22.

[2] = system: HEK-293 cells co-expressing GIRK1 and GIRK2; conditions: dye loading 1 h, 1 mM Tl^+ stimulus; for on/off (Tl^+ flux assay), maximum fold increase in fluorescence after Tl^+ addition: 10 μM ML297, 2 mM Allura Red AC, n = 6
Procedure: HEK-293 cells co-expressing GIRK1 and GIRK2 were cultured to 80% confluence in a T75 flask (Techno Plastic Products, Trasadingen, CH) at 37° C. and 5% CO2 in medium consisting of Minimal Essential Medium (Cellgro, Manassas, Va.) containing 1× Glutagro (Cellgro, Manassas, Va.) and 10% (v/v) heat-inactivated fetal bovine serum (Life Technologies, Carlsbad, Calif.). The cells were dislodged by treatment with TrypLE (Gibco/Life Technologies, Carlsbad, Calif.), diluted in medium, and plated on clear bottomed, black-walled, amine coated 384 well plates (BD Biosciences, Billerica, Mass.) at a density ˜20,000 cells per well. The plated cells were incubated overnight at 37° C. and 5% CO2 and used for the assay the next day.
Dye loading solutions of Thallos were prepared by dissolving a 25 μg aliquot in 30 μL of 6.7% Pluoronic F-127 (w/v) in DMSO and diluting the resulting solution 1:1000 into assay buffer. Culture medium was removed and replaced with 20 μL of dye loading buffer and incubated in the dark at room temperature for 1 h.
Assay—Assays were conducted on a WaveFront Biosciences Panoptic 1 or 2 (WaveFront Biosciences, Franklin, Tenn.) as indicated. Dye loading solutions were removed and replaced with assay buffer immediately before imaging unless otherwise noted. 10 s following commencement of plate imaging, 20 μL of compound at 2.5× concentration in assay buffer was added and incubated for 120 s at which point 10 μL of Tl^+ at 5× concentration in stimulus buffer (125 mM NaHCO3, 1.8 mM CaSO4, 1 mM MgSO4, 5 mM glucose, 10 mM HEPES, pH 7.4, and T12SO4), and images taken for the following 120 s.
1 mM of T12SO4 (final concentration) was used for stimulus. Assay and stimulus buffers were supplemented with 2 mM of Allura Red AC. […] On/off ratios were calculated by dividing the fluorescence intensity after saturation following Tl^+ addition by the fluorescence intensity immediately after compound addition (n=6).

GIRK1 and GIRK2 = biological target: T1, GIRK1 and GIRK2 (Homo sapiens, UniProt P48051+P48549); assay: ML297 concentration response curves by Tl+ flux assay; assay type: cell-based
T1 construct: expressed in transfected cells; host or cells: HEK-293
T1 sequence (P48549 1-501): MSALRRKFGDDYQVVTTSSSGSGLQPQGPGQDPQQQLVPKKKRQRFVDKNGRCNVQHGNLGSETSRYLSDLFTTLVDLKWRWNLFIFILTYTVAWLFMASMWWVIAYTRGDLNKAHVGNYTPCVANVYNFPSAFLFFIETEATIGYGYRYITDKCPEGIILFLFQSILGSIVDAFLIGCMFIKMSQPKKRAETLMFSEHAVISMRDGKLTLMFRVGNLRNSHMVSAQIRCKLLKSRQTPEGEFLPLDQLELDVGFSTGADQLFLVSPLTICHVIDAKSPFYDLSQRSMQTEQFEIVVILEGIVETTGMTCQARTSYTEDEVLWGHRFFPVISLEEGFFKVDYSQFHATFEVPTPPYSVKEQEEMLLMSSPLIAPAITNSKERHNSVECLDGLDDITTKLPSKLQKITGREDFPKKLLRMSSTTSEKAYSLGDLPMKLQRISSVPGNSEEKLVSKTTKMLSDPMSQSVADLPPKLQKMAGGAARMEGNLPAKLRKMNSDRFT
T1 sequence (P48051 1-423): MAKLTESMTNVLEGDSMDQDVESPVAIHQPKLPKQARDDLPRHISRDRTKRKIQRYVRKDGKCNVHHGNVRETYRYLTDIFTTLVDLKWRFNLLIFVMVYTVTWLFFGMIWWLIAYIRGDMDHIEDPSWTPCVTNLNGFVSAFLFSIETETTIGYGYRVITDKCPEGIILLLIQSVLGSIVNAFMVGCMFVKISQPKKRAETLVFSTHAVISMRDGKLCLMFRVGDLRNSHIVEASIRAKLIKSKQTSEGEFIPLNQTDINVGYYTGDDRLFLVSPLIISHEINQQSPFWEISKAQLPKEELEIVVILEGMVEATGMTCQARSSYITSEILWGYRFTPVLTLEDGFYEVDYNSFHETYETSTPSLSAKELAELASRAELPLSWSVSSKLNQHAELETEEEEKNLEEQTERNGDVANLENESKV
Description: ML297 concentration response curves—In general, all concentration-response data were collected on a WaveFront Biosciences Panoptic 2. Thallos treated cells were imaged using 482/35 nm excitation and 536/40 nm emission filters. 8c treated cells were imaged using 529/24 nm excitation and 565/24 nm emission filters (unless otherwise noted). FluxOR Red treated cells were imaged using 544/24 nm excitation and 593/40 nm emission filters (all filters purchased from Semrock, Rochester, N.Y.). FluxOR Red reagent was prepared according to the manufacturer's procedure. 5 μM of 8c was used for dye loading for all conditions.
FluxOR Red procedure with background suppressor. The manufacturer's procedure was followed with the exceptions that the dye loading solution was replaced with 20 μL of assay buffer, solutions of ML297 were prepared in assay buffer plus background suppressor, 20 μL of compound solution was added and 10 μL stimulus buffer (basal) was added according to the general assay protocol described above.
FluxOR Red procedure without background suppressor. The FluxOR Red manufacturer's procedure was followed except the background suppressor was replaced by H2O in all buffers.
Bicarbonate buffer with Allura Red AC. The assay and stimulus buffers described in the general Tl^+ flux procedure were used for dye loading, assay buffer with ML297, and stimulus buffer. All buffers were supplemented with 1 mM of Allura Red AC. The wash step to remove dye loading buffer was omitted.
Bicarbonate buffer without Allura Red AC. The general Tl^+ flux procedure was followed without any solutions supplemented with Allura Red AC.
The fluorescence intensity values of the first 6 time points for each well were averaged and the fluorescence intensity for all time points in the well was divided by this value to provide F/Fo for each time point. The average F/Fo of the vehicle control was then subtracted from each curve and the normalized, control subtracted fluorescence intensity value was sampled at a time point several seconds after Tl^+ addition. […] Fold increases in fluorescence reported in the main paper were calculated by averaging F/Fo between 100 and 110 s after Tl^+ addition. Data presented in FIG. 3 and FIG. 6 were obtained using 8c with the FluxOR Red kit as described above under the FluxOR Red with background suppressor procedure.
The performance of 8c was evaluated in a Tl^+ flux assay to generate a concentration response curve (CRC) of the GIRK activator ML297. […] Normalized, control subtracted fluorescence intensity values were sampled along the curves following Tl^+ addition at each concentration and a CRC was fit using GraphPad Prism (FIG. 3B).

Row | Compound | λem (fluorescence emission maximum) [1] | λmax (absorption maximum) [1] | ε (molar absorptivity) [1] | on/off (Tl^+ flux assay), maximum fold increase in fluorescence after Tl^+ addition [2] | other results
1 | COc1cc(NC(=O)c2ccc3c(c2)C(=O)OC32c3ccc(OC(C)=O)cc3Oc3cc(N4CCCC4)ccc32)ccc1N(CC(=O)OCOC(C)=O)CC(=O)OCOC(C)=O (stereo not drawn) [Compound 8l, bis(acetoxymethyl) 2,2′-((4-(3′-acetoxy-3-oxo-6′-(pyrrolidin-1-yl)-3H-spiro[isobenzofuran-1,9′-xanthen]-5-ylcarboxamido)-2-methoxyphenyl)azanediyl)diacetate] | 553 nm | 525 nm | 39000 M⁻¹ cm⁻¹ | 3.54 ± 0.07 fold | –
2 | Cc1cc(NC(=O)Nc2ccc(F)c(F)c2)n(-c2ccccc2)n1 [ML297] | – | – | – | – | EC50 (GIRK1 and GIRK2; dye 8c (5 μM, 1 h), FluxOR Red kit with background suppressor, 1 mM Tl^+): 257 ± 3.7 nM; pEC50 and standard error of ML297 activation (GIRK1 and GIRK2; dye 8c (544x/593m filters), FluxOR Red Kit, Background Suppressor +): 6.63 ± 0.01; pEC50 and standard error of ML297 activation (GIRK1 and GIRK2; dye 8c (544x/593m filters), FluxOR Red Kit, Background Suppressor −): 6.66 ± 0.04; pEC50 and standard error of ML297 activation (GIRK1 and GIRK2; dye 8c, FluxOR Red Kit, Background Suppressor +): 6.59 ± 0.01; pEC50 and standard error of ML297 activation (GIRK1 and GIRK2; dye 8c, FluxOR Red Kit, Background Suppressor −): 6.61 ± 0.02; pEC50 and standard error of ML297 activation (GIRK1 and GIRK2; dye 8c, HCO3^− Stimulus Buffer, 1 mM Allura Red AC +): 6.69 ± 0.01; pEC50 and standard error of ML297 activation (GIRK1 and GIRK2; dye 8c, HCO3^− Stimulus Buffer, 1 mM Allura Red AC −): 6.59 ± 0.03; EC50 (GIRK1 and GIRK2; dye 8c, bicarbonate stimulus buffer, 500 μM Tl^+, no-wash, 1 mM Allura Red AC): 204 ± 5.2 nM; pEC50 and standard error of ML297 activation (GIRK1 and GIRK2; dye FluxOR Red, FluxOR Red Kit, Background Suppressor +): 6.64 ± 0.01; pEC50 and standard error of ML297 activation (GIRK1 and GIRK2; dye FluxOR Red, FluxOR Red Kit, Background Suppressor −): 6.41 ± 0.03; pEC50 and standard error of ML297 activation (GIRK1 and GIRK2; dye FluxOR Red, HCO3^− Stimulus Buffer, 1 mM Allura Red AC −): 7.02 ± 0.1; pEC50 and standard error of ML297 activation (GIRK1 and GIRK2; dye Thallos, FluxOR Red Kit, Background Suppressor +): 6.57 ± 0.04; pEC50 and standard error of ML297 activation (GIRK1 and GIRK2; dye Thallos, FluxOR Red Kit, Background Suppressor −): 6.65 ± 0.02; pEC50 and standard error of ML297 activation (GIRK1 and GIRK2; dye Thallos, HCO3^− Stimulus Buffer, 1 mM Allura Red AC +): 6.66 ± 0.01; pEC50 and standard error of ML297 activation (GIRK1 and GIRK2; dye Thallos, HCO3^− Stimulus Buffer, 1 mM Allura Red AC −): 6.61 ± 0.01; EC50 (GIRK1 and GIRK2; dye Thallos, bicarbonate stimulus buffer, 500 μM Tl^+, no-wash, 1 mM Allura Red AC): 219 ± 23 nM; EC50 (GIRK1 and GIRK2; dye Thallos, same procedure (FluxOR Red kit with background suppressor)): 272 ± 23 nM
3 | CCCCNc1ccc2c(c1)Oc1cc(OC(C)=O)ccc1C21OC(=O)c2cc(C(=O)Nc3ccc(N(CC(=O)OCOC(C)=O)CC(=O)OCOC(C)=O)c(OC)c3)ccc21 (stereo not drawn) [Compound 8h, bis(acetoxymethyl) 2,2′-((4-(3′-acetoxy-6′-(butylamino)-3-oxo-3H-spiro[isobenzofuran-1,9′-xanthen]-5-ylcarboxamido)-2-methoxyphenyl)azanediyl)diacetate] | 533 nm | 511 nm | 48000 M⁻¹ cm⁻¹ | 3.50 ± 0.07 fold | –
4 | CCN(CC)c1ccc2c(c1)Oc1cc(OC(C)=O)ccc1C21OC(=O)c2cc(C(=O)Nc3ccc(N(CC(=O)OCOC(C)=O)CC(=O)OCOC(C)=O)c(OC)c3)ccc21 (stereo not drawn) [Compound 8d, bis(acetoxymethyl) 2,2′-((4-(3′-acetoxy-6′-(diethylamino)-3-oxo-3H-spiro[isobenzofuran-1,9′-xanthen]-5-ylcarboxamido)-2-methoxyphenyl)azanediyl)diacetate] | 551 nm | 525 nm | 55000 M⁻¹ cm⁻¹ | 3.28 ± 0.04 fold | –
5 | COc1cc(NC(=O)c2ccc3c(c2)C(=O)OC32c3ccc(OC(C)=O)cc3Oc3cc(N4CC(F)(F)C4)ccc32)ccc1N(CC(=O)OCOC(C)=O)CC(=O)OCOC(C)=O (stereo not drawn) [Compound 8k, bis(acetoxymethyl) 2,2′-((4-(3′-acetoxy-6′-(3,3-difluoroazetidin-1-yl)-3-oxo-3H-spiro[isobenzofuran-1,9′-xanthen]-5-ylcarboxamido)-2-methoxyphenyl)azanediyl)diacetate] | 530 nm | 506 nm | 66000 M⁻¹ cm⁻¹ | 2.02 ± 0.04 fold | fluorescence and response to Tl^+ in cells (in words) [2]: almost half the response to Tl^+
6 | CCCN(CCC)c1ccc2c(c1)Oc1cc(OC(C)=O)ccc1C21OC(=O)c2cc(C(=O)Nc3ccc(N(CC(=O)OCOC(C)=O)CC(=O)OCOC(C)=O)c(OC)c3)ccc21 (stereo not drawn) [Compound 8e, bis(acetoxymethyl) 2,2′-((4-(3′-acetoxy-6′-(dipropylamino)-3-oxo-3H-spiro[isobenzofuran-1,9′-xanthen]-5-ylcarboxamido)-2-methoxyphenyl)azanediyl)diacetate] | 553 nm | 527 nm | 66000 M⁻¹ cm⁻¹ | 2.94 ± 0.08 fold | –
7 | CCCCN(CCCC)c1ccc2c(c1)Oc1cc(OC(C)=O)ccc1C21OC(=O)c2cc(C(=O)Nc3ccc(N(CC(=O)OCOC(C)=O)CC(=O)OCOC(C)=O)c(OC)c3)ccc21 (stereo not drawn) [Compound 8f, bis(acetoxymethyl) 2,2′-((4-(3′-acetoxy-6′-(dibutylamino)-3-oxo-3H-spiro[isobenzofuran-1,9′-xanthen]-5-ylcarboxamido)-2-methoxyphenyl)azanediyl)diacetate] | 556 nm | 528 nm | 58000 M⁻¹ cm⁻¹ | 1.52 ± 0.01 fold | –
